This is an account of results in US9840513B2 (AbbVie S.à.r.l., priority 2015, dated 2017).

The test addresses T1, F508delCFTR cell surface expression in CFBE41o-F508delCFTR-HRP cells (Homo sapiens, UniProt P13569, DEL508-508).
T1 construct: fused on or other part: Horseradish peroxidase (HRP) reporter inserted in the fourth exofacial (extracellular) loop of CFTR; expression is doxycycline-inducible
The experiment in a line: Cell Surface Expression-Horse Radish Peroxidase (CSE-HRP) Assay. The test is classed as cell-based. To be noted: for EC50: CFBE41o-F508delCFTR-HRP cells, 18-24 hours at 33° C., 8-point curve, highest concentration 20 μM; for Maximum % activity (%): maximum at any tested concentration, normalized to on-plate positive control (3 μM). An outline of the steps: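 Correctors incubated 18-24 h at 33 °C on doxycycline-induced (0.5 μg/mL, 72 h) CFBE41o-F508delCFTR-HRP cells, 3-fold series from 20 μM. After DPBS washes, luminol luminescence read; activity expressed relative to DMSO and a 3 μM positive control, EC50 fitted from triplicate plates.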

T1 sequence (P13569 with tags, fused parts or gaps DEL508-508 limits assumed): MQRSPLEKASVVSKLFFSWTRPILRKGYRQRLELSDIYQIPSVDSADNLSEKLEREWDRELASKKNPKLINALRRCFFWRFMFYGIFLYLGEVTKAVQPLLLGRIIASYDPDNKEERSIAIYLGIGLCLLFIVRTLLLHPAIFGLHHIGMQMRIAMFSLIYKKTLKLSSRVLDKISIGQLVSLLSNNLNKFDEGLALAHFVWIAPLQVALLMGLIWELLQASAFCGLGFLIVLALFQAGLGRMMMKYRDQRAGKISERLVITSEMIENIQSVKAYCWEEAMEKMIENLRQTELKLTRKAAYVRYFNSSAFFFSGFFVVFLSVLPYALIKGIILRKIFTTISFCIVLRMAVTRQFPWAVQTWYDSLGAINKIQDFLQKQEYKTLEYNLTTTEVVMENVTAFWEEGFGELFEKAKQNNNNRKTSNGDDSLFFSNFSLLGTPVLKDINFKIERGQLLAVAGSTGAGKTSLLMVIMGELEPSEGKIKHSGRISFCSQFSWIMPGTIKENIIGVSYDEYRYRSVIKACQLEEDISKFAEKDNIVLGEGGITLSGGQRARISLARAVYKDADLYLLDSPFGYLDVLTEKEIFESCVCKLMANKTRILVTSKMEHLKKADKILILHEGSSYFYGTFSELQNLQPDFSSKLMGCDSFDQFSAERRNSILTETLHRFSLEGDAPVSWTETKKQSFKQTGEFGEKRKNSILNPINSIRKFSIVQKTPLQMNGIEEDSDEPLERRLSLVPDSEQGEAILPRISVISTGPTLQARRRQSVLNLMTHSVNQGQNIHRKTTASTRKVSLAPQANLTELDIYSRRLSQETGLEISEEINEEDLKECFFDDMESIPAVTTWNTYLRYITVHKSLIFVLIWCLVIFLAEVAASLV
T1 sequence (P13569 919-1480 limits assumed, stated change not applied): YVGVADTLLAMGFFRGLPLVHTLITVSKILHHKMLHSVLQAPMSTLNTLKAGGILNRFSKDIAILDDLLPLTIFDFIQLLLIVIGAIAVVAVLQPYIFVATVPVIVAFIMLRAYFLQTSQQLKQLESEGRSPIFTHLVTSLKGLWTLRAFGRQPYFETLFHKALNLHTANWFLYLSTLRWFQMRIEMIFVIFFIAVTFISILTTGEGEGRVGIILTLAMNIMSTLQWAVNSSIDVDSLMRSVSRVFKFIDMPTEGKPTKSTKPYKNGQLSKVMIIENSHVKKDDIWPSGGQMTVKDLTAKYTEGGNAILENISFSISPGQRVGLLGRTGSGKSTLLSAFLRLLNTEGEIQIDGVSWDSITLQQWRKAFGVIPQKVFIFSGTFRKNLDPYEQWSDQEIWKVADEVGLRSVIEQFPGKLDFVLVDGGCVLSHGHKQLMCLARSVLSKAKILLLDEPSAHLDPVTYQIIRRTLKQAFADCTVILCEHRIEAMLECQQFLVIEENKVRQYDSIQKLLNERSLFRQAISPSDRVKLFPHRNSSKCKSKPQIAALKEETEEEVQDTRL

The EC50 is the concentration needed to bring the measured effect to its halfway point. For the molecule `C[C@]1(C(=O)N[C@@H]2C[C@H](C3CCC(CO)(C(=O)O)CC3)Oc3cc(OC(F)(F)F)ccc32)COc2cc3c(cc21)OC(F)(F)O3` (stereo partly drawn) [Example 288, 4-[(2R,4R)-4-{[(7R)-2,2-difluoro-7-methyl-6,7-dihydro-2H-furo[2,3-f][1,3]benzodioxole-7-carbonyl]amino}-7-(trifluoromethoxy)-3,4-dihydro-2H-1-benzopyran-2-yl]-1-(hydroxymethyl)cyclohexane-1-carboxylic acid], the EC50 is 290 nM and the “Maximum % activity (%)” value turned out to be 138%.
As to `CC(C)(C)c1cc2cc(NC(=O)[C@@]3(C)COc4cc5c(cc43)OC(F)(F)O5)ccc2[nH]1` [Example 131, (7R)—N-(2-tert-butyl-1H-indol-5-yl)-2,2-difluoro-7-methyl-6,7-dihydro-2H-furo[2,3-f][1,3]benzodioxole-7-carboxamide], the EC50 amounted to 1310 nM and the “Maximum % activity (%)” value is 173%.
In the case of `C[C@]1(C(=O)Nc2cccc(N3CC[C@H](O)C3)n2)COc2cc3c(cc21)OC(F)(F)O3` [Example 88, (7R)-2,2-difluoro-N-{6-[(3S)-3-hydroxypyrrolidin-1-yl]pyridin-2-yl}-7-methyl-6,7-dihydro-2H-furo[2,3-f][1,3]benzodioxole-7-carboxamide], it took 730 nM to reach a half-maximal effect (EC50) and the “Maximum % activity (%)” value is on record as 113%.
For `COc1ccc2c(c1)O[C@@H](COCc1ccccc1)C[C@H]2NC(=O)[C@@]1(C)COc2cc3c(cc21)OC(F)(F)O3` [Example 276, (7R)—N-{(2R,4R)-2-[(benzyloxy)methyl]-7-methoxy-3,4-dihydro-2H-1-benzopyran-4-yl}-2,2-difluoro-7-methyl-6,7-dihydro-2H-furo[2,3-f][1,3]benzodioxole-7-carboxamide], in that order: 700 nM and 117%.
In the same order, the values of `COC(=O)c1ccc(-c2cccc(NC(=O)C3(C)COc4cc5c(cc43)OC(F)(F)O5)c2)cc1` (stereo not shown) [Example 66, methyl 3′-[(2,2-difluoro-7-methyl-6,7-dihydro-2H-furo[2,3-f][1,3]benzodioxole-7-carbonyl)amino][1,1′-biphenyl]-4-carboxylate] are 4110 nM and 160%.
For `Cc1ccc(NC(=O)C2(C)COc3cc4c(cc32)OC(F)(F)O4)nc1-c1cccc(C(=O)N(C)C)c1` (stereo not shown) [Example 75, N-{6-[3-(dimethylcarbamoyl)phenyl]-5-methylpyridin-2-yl}-2,2-difluoro-7-methyl-6,7-dihydro-2H-furo[2,3-f][1,3]benzodioxole-7-carboxamide], the EC50 was 1730 nM and the “Maximum % activity (%)” value was found to be 94%.
In the same order, the values of “methyl 4-[(2R,4S,6S)-4-{[(7R)-2,2-difluoro-7-methyl-6,7-dihydro-2H-furo[2,3-f][1,3]benzodioxole-7-carbonyl]amino}-6-phenyloxan-2-yl]benzoate and methyl 4-[(2S,4R,6R)-4-{[(7R)-2,2-difluoro-7-methyl-6,7-dihydro-2H-furo[2,3-f][1,3]benzodioxole-7-carbonyl]amino}-6-phenyloxan-2-yl]benzoate [Example 33]” are 1180 nM and 131%.
For `COCC(CO)NC(=O)c1ccc([C@H]2C[C@@H](NC(=O)[C@@]3(C)COc4cc5c(cc43)OC(F)(F)O5)c3ccc(OC)cc3O2)nc1` (stereo partly drawn) [Example 246, 6-[(2R,4R)-4-{[(7R)-2,2-difluoro-7-methyl-6,7-dihydro-2H-furo[2,3-f][1,3]benzodioxole-7-carbonyl]amino}-7-methoxy-3,4-dihydro-2H-1-benzopyran-2-yl]-N-(1-hydroxy-3-methoxypropan-2-yl)pyridine-3-carboxamide], in that order: 80 nM and 125%.
`CC1(C(=O)Nc2cccc(C(=O)NC[C@@H](O)CO)n2)COc2cc3c(cc21)OC(F)(F)O3` (stereo partly drawn) [Example 65, 6-[(2,2-difluoro-7-methyl-6,7-dihydro-2H-furo[2,3-f][1,3]benzodioxole-7-carbonyl)amino]-N-[(2R)-2,3-dihydroxypropyl]pyridine-2-carboxamide]: the EC50 was above 20000 nM and the “Maximum % activity (%)” value is 1%.
Take `C[C@]1(C(=O)N[C@@H]2C[C@H]([C@H]3CC[C@H](C(=O)N4C[C@@H](O)[C@H](O)C4)CC3)Oc3cc(OC(F)(F)F)ccc32)COc2cc3c(cc21)OC(F)(F)O3` [Example 255, (7R)—N-[(2R,4R)-2-{trans-4-[(3R,4R)-3,4-dihydroxypyrrolidine-1-carbonyl]cyclohexyl}-7-(trifluoromethoxy)-3,4-dihydro-2H-1-benzopyran-4-yl]-2,2-difluoro-7-methyl-6,7-dihydro-2H-furo[2,3-f][1,3]benzodioxole-7-carboxamide]: the EC50 came to 90 nM and the “Maximum % activity (%)” value amounted to 158%.
In the same order, the values of `C[C@]1(C(=O)Nc2cccc(-c3cccc(C(=O)O)c3F)n2)COc2cc3c(cc21)OC(F)(F)O3` [Example 125, 3-(6-{[(7R)-2,2-difluoro-7-methyl-6,7-dihydro-2H-furo[2,3-f][1,3]benzodioxole-7-carbonyl]amino}pyridin-2-yl)-2-fluorobenzoic acid] are 1390 nM and 136%.
For `CC1(C)OC[C@@H](Cn2c3c(c4cc(NC(=O)[C@@]5(C)COc6cc7c(cc65)OC(F)(F)O7)c(F)cc42)C(C)(C)OCC3(C)C)O1` [Example 207, (7R)—N-(5-{[(4R)-2,2-dimethyl-1,3-dioxolan-4-yl]methyl}-7-fluoro-1,1,4,4-tetramethyl-1,3,4,5-tetrahydropyrano[4,3-b]indol-8-yl)-2,2-difluoro-7-methyl-6,7-dihydro-2H-furo[2,3-f][1,3]benzodioxole-7-carboxamide], in that order: 350 nM and 69%.
Consider `COC(=O)c1cccc([C@H]2C[C@@H](NC(=O)C3(C)COc4cc5c(cc43)OC(F)(F)O5)c3ccc(OC)cc3O2)c1` (stereo partly drawn) [Example 10, methyl 3-{(2R,4R)-4-[(2,2-difluoro-7-methyl-6,7-dihydro-2H-furo[2,3-f][1,3]benzodioxole-7-carbonyl)amino]-7-methoxy-3,4-dihydro-2H-1-benzopyran-2-yl}benzoate], for which the EC50 was found to be 410 nM and the “Maximum % activity (%)” value turned out to be 121%.
Take `C[C@]1(C(=O)N[C@@H]2C[C@H](C3CCN(CC(=O)O)CC3)Oc3cc(OC(F)(F)F)ccc32)COc2cc3c(cc21)OC(F)(F)O3` [Example 187, {4-[(2R,4R)-4-{[(7R)-2,2-difluoro-7-methyl-6,7-dihydro-2H-furo[2,3-f][1,3]benzodioxole-7-carbonyl]amino}-7-(trifluoromethoxy)-3,4-dihydro-2H-1-benzopyran-2-yl]piperidin-1-yl}acetic acid]: the EC50 worked out at 2540 nM and the “Maximum % activity (%)” value is given as 129%.
In the same order, the values of `COc1ccc2c(c1)O[C@@H](c1ccc(C(=O)NCCO)cn1)C[C@H]2NC(=O)[C@@]1(C)COc2cc3c(cc21)OC(F)(F)O3` [Example 244, 6-[(2R,4R)-4-{[(7R)-2,2-difluoro-7-methyl-6,7-dihydro-2H-furo[2,3-f][1,3]benzodioxole-7-carbonyl]amino}-7-methoxy-3,4-dihydro-2H-1-benzopyran-2-yl]-N-(2-hydroxyethyl)pyridine-3-carboxamide] are 30 nM and 114%.
For `COc1ccc2c(c1)O[C@@H](c1ccc(C(=O)NC3c4ccccc4CC3O)cn1)C[C@H]2NC(=O)[C@@]1(C)COc2cc3c(cc21)OC(F)(F)O3` (stereo partly drawn) [Example 221, 6-[(2R,4R)-4-{[(7R)-2,2-difluoro-7-methyl-6,7-dihydro-2H-furo[2,3-f][1,3]benzodioxole-7-carbonyl]amino}-7-methoxy-3,4-dihydro-2H-1-benzopyran-2-yl]-N-(2-hydroxy-2,3-dihydro-1H-inden-1-yl)pyridine-3-carboxamide], in that order: 80 nM and 125%.
For `COc1ccc2c(c1)O[C@@H](c1ccc(C(=O)NCCS(C)(=O)=O)cn1)C[C@H]2NC(=O)[C@@]1(C)COc2cc3c(cc21)OC(F)(F)O3` [Example 230, 6-[(2R,4R)-4-{[(7R)-2,2-difluoro-7-methyl-6,7-dihydro-2H-furo[2,3-f][1,3]benzodioxole-7-carbonyl]amino}-7-methoxy-3,4-dihydro-2H-1-benzopyran-2-yl]-N-[2-(methanesulfonyl)ethyl]pyridine-3-carboxamide], the EC50 amounted to 60 nM and the “Maximum % activity (%)” value stood at 115%.
In the same order, the values of `CCCN(CCO)C(=O)c1ccc([C@H]2C[C@@H](NC(=O)[C@@]3(C)COc4cc5c(cc43)OC(F)(F)O5)c3ccc(OC)cc3O2)nc1` [Example 209, 6-[(2R,4R)-4-{[(7R)-2,2-difluoro-7-methyl-6,7-dihydro-2H-furo[2,3-f][1,3]benzodioxole-7-carbonyl]amino}-7-methoxy-3,4-dihydro-2H-1-benzopyran-2-yl]-N-(2-hydroxyethyl)-N-propylpyridine-3-carboxamide] are 30 nM and 122%.
For `COc1ccc2c(c1)O[C@@H](CO)C[C@H]2NC(=O)[C@@]1(C)COc2cc3c(cc21)OC(F)(F)O3` [Example 277, (7R)-2,2-difluoro-N-[(2R,4R)-2-(hydroxymethyl)-7-methoxy-3,4-dihydro-2H-1-benzopyran-4-yl]-7-methyl-6,7-dihydro-2H-furo[2,3-f][1,3]benzodioxole-7-carboxamide], in that order: 660 nM and 110%.
For the molecule `COc1ccc2c(c1)O[C@@H](c1cccc(C(=O)O)c1)C[C@H]2NC(=O)[C@]1(C)CCc2cc3c(cc21)OC(F)(F)O3` (single isomer, unassigned) [Example 56], the EC50 was found to be 880 nM and the “Maximum % activity (%)” value amounted to 107%.
